The values that follow come from US20240018157A1, “CYCLIC COMPOUNDS AND METHODS OF USING SAME” (Schrödinger, Inc., priority 2019, published 2024).

One may read the IC50 as the point on the concentration scale where inhibition reaches its midpoint.

The target in test [1] is T1, full-length MALT1 protein His-MALT1(1-824) (Homo sapiens (Human), UniProt Q9UDY8). As to the kind of experiment: MALT1 protease assay, Assay 1 (2 nM MALT1, Ac-LRSR-AMC substrate). It is filed as biochemical. The following applies: 2 nM MALT1, 50 μM Ac-LRSR-AMC, 2 h pre-incubation, 8 hr incubation at RT. Here is the method:
MALT1 protease activity was assessed in an in vitro assay using a tetrapeptide as substrate and full-length MALT1 protein His-MALT1(1-824) purified from baculovirus-infected insect cells.
The final assay buffer includes 1 nM (Assay 2) or 2 nM (Assay 1) of MALT1 full-length protein, 50 μM Ac-LRSR-AMC substrate, 50 mM Tris pH 7.5, 600 mM Sodium Citrate, 1 mM DTT, 1 mM EDTA, and 0.05% BSA in 384-well plate format using black microtiter square well plates (Optiplate 384-F, Perkin Elmer).
Test compounds were dissolved in 100% DMSO at stock of 10 mM, with final DMSO concentration 0.1%. Test compounds were pre-incubated with MALT1 protein for 2 h at room temperature. Substrate was added after the pre-incubation and fluorescence signal was measured using Envision at excitation 355 nm and emission 460 nm after 8 hr incubation at RT. Increase in the assay signal was linear over this period and proportional with increase in the enzyme content.
The fluorescence units were transformed to percentage of remaining activity by using the high control (HC, median of fluorescence signal from wells containing MALT1 protein, substrate, and DMSO) and low control (LC, median of fluorescence signal from wells with substrate only) with the formula below: […]
IC50 and Hill coefficient were obtained using Graph Pad Prism (Graph Pad software, Inc, USA) with non-linear regression analysis.

Test [2] deals with IL10 secretion, OCI-LY10 cells. As to the kind of experiment: Human IL10 secretion assay, Assay 1 (HTRF). In kind it is cell-based. The following applies: 24 h incubation, read-out: IL-10 Secretion IC50 [nM] Assay 1. The essentials:
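OCI-LY10 cells (3×10^5/well, IMEM with 20% FBS) were treated with 3-fold serial compound dilutions from a 10 mM stock, 0.1% DMSO final, for 24 h. Secreted IL10 in medium was quantified by HTRF, normalised to DMSO-treated and no-cell controls, and IC50 (nM) derived by 4-parameter fit.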
A general note: Time-resolved FRET reads energy transfer from a long-lived donor to a nearby acceptor.

Test [3] deals with T1, full-length MALT1 protein His-MALT1(1-824). As to the kind of experiment: MALT1 protease assay, Assay 2 (1 nM MALT1, Ac-LRSR-AMC substrate). It is filed as biochemical. Particulars: 1 nM MALT1, 50 μM Ac-LRSR-AMC, 2 h pre-incubation, 8 hr incubation at RT. The essentials:
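His-MALT1(1-824) from baculovirus-infected insect cells at 1 nM, preincubated 2 h at RT with compound (0.1% DMSO), then 50 μM Ac-LRSR-AMC in 50 mM Tris pH 7.5, 600 mM sodium citrate, 1 mM DTT, 1 mM EDTA, 0.05% BSA. Fluorescence (ex 355/em 460 nm) after 8 h at RT, normalized to enzyme and substrate-only controls. IC50 and Hill coefficient by non-linear regression.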

T1 sequence (Q9UDY8 whole entry): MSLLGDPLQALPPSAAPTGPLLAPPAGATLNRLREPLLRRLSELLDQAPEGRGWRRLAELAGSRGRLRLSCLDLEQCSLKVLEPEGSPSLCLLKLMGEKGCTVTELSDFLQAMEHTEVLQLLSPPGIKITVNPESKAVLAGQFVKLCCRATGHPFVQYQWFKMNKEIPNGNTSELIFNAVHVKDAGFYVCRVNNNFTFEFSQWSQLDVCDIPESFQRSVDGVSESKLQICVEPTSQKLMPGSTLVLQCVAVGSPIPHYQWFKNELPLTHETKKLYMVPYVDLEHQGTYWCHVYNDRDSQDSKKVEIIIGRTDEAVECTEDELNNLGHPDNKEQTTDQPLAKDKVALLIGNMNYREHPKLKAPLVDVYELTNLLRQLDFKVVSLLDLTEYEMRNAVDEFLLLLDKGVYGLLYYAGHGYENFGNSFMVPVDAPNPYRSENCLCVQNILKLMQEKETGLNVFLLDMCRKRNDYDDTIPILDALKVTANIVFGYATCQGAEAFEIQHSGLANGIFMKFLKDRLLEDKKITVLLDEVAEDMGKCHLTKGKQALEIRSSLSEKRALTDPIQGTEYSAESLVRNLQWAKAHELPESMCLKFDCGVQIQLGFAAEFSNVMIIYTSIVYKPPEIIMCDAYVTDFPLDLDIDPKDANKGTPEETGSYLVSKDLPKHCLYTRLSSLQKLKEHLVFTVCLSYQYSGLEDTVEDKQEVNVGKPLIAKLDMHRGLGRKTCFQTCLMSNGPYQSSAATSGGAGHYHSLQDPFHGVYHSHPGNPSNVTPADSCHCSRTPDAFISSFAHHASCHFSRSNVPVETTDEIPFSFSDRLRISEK

In the case of `Cc1cc2ncc3c(n2n1)C(C)(C)CCN3C(=O)Nc1cnc(-n2nccn2)c(Cl)c1` [compound 8, N-(5-chloro-6-(2H-1,2,3-triazol-2-yl)pyridin-3-yl)-2,9,9-trimethyl-8,9-dihydropyrazolo[1,5-a]pyrido[2,3-e]pyrimidine-6(7H)-carboxamide], the IC50 in test [1] lay within 10 to 100 nM; in test [2] it was 100 to 1000 nM.
In the same order, the values of `CC1(C)CCN(C(=O)Nc2cnc(-n3nccn3)c(Cl)c2)c2ccc3cc(Cl)nn3c21` [compound 9, 2-chloro-N-(5-chloro-6-(2H-1,2,3-triazol-2-yl)pyridin-3-yl)-9,9-dimethyl-8,9-dihydropyrazolo[1,5-a][1,5]naphthyridine-6(7H)-carboxamide] are 10 to 100 nM and at least 1000 nM.
Regarding `Cn1cc(-c2ncc(NC(=O)N3C[C@@](C)(C(F)(F)F)c4c3cnc3cc(Cl)nn43)cc2Cl)cn1` [compound 20, (R)-2-chloro-N-(5-chloro-6-(1-methyl-1H-pyrazol-4-yl)pyridin-3-yl)-8-methyl-8-(trifluoromethyl)-7,8-dihydro-6H-pyrazolo[1,5-a]pyrrolo[2,3-e]pyrimidine-6-carboxamide], the figures for the half-inhibitory concentration (IC50) in test [1] and in test [2] were 10 to 100 nM and 100 to 1000 nM, respectively.
For `C[C@@]1(C(F)(F)F)CN(C(=O)Nc2cnc(-n3cc(C#N)cn3)c(Cl)c2)c2cnc3cc(Cl)nn3c21` [compound 22, (R)-2-chloro-N-(5-chloro-6-(4-cyano-1H-pyrazol-1-yl)pyridin-3-yl)-8-methyl-8-(trifluoromethyl)-7,8-dihydro-6H-pyrazolo[1,5-a]pyrrolo[2,3-e]pyrimidine-6-carboxamide], the half-maximal inhibitory concentration (IC50) in test [1] lay within 10 to 100 nM.
Still for that read-out and setting: next, `C[C@@]1(C(F)(F)F)CN(C(=O)Nc2cnc(N3CCCC3)c(Cl)c2)c2cnc3cc(Cl)nn3c21` [compound 23, (R)-2-chloro-N-(5-chloro-6-(pyrrolidin-1-yl)pyridin-3-yl)-8-methyl-8-(trifluoromethyl)-7,8-dihydro-6H-pyrazolo[1,5-a]pyrrolo[2,3-e]pyrimidine-6-carboxamide]: 10 to 100 nM; `Cn1cnc(-c2ncc(NC(=O)N3C[C@@](C)(C(F)(F)F)c4c3cnc3cc(Cl)nn43)cc2Cl)c1` [compound 28, (R)-2-chloro-N-(5-chloro-6-(1-methyl-1H-imidazol-4-yl)pyridin-3-yl)-8-methyl-8-(trifluoromethyl)-7,8-dihydro-6H-pyrazolo[1,5-a]pyrrolo[2,3-e]pyrimidine-6-carboxamide]: 10 to 100 nM.
Still for that read-out and setting: next, `Cc1cc(NC(=O)N2C[C@@](C)(C(F)(F)F)c3c2cnc2cc(Cl)nn32)cnc1-n1ccnn1` [compound 30, (R)-2-chloro-8-methyl-N-(5-methyl-6-(1H-1,2,3-triazol-1-yl)pyridin-3-yl)-8-(trifluoromethyl)-7,8-dihydro-6H-pyrazolo[1,5-a]pyrrolo[2,3-e]pyrimidine-6-carboxamide]: 10 to 100 nM.
Consider `C[C@@]1(C(F)(F)F)CN(C(=O)NC2CCC(F)(F)CC2)c2cnc3cc(Cl)nn3c21` [compound 37, (R)-2-chloro-N-(4,4-difluorocyclohexyl)-8-methyl-8-(trifluoromethyl)-7,8-dihydro-6H-pyrazolo[1,5-a]pyrrolo[2,3-e]pyrimidine-6-carboxamide], for which the concentration for half-maximal inhibition (IC50) in test [3] and in test [1] was 100 to 1000 nM throughout.
Consider `C[C@@]1(C(F)(F)F)CN(C(=O)Nc2cnc(C#N)c(Cl)c2)c2cnc3cc(Cl)nn3c21` [compound 42, (R)-2-chloro-N-(5-chloro-6-cyanopyridin-3-yl)-8-methyl-8-(trifluoromethyl)-7,8-dihydro-6H-pyrazolo[1,5-a]pyrrolo[2,3-e]pyrimidine-6-carboxamide], for which the values for the half-inhibitory concentration (IC50) in test [3], in test [1] and in test [2] were 10 to 100 nM, 10 to 100 nM and 100 to 1000 nM, respectively.
For the compound `C[C@@]1(C(F)(F)F)CN(C(=O)Nc2cnc(CO)c(Cl)c2)c2cnc3cc(Cl)nn3c21` [compound 43, (R)-2-chloro-N-(5-chloro-6-(hydroxymethyl)pyridin-3-yl)-8-methyl-8-(trifluoromethyl)-7,8-dihydro-6H-pyrazolo[1,5-a]pyrrolo[2,3-e]pyrimidine-6-carboxamide], the half-maximal inhibitory concentration (IC50) was in the range of 10 to 100 nM in test [1] and 100 to 1000 nM in test [2].
`C[C@@]1(C(F)(F)F)CN(C(=O)Nc2cc(Cl)c(=O)n(C(F)F)c2)c2cnc3cc(Cl)nn3c21` [compound 50, (R)-2-chloro-N-(5-chloro-1-(difluoromethyl)-6-oxo-1,6-dihydropyridin-3-yl)-8-methyl-8-(trifluoromethyl)-7,8-dihydro-6H-pyrazolo[1,5-a]pyrrolo[2,3-e]pyrimidine-6-carboxamide] showed an IC50 in test [1] of 10 to 100 nM.
On the same count and under the same terms, next, `CNc1ncc(NC(=O)N2C[C@@](C)(C(F)(F)F)c3c2cnc2cc(Cl)nn32)cc1Cl` [compound 51, (R)-2-chloro-N-(5-chloro-6-(methylamino)pyridin-3-yl)-8-methyl-8-(trifluoromethyl)-7,8-dihydro-6H-pyrazolo[1,5-a]pyrrolo[2,3-e]pyrimidine-6-carboxamide]: 10 to 100 nM.
Consider `COc1nc(-n2nccn2)c(Cl)cc1NC(=O)N1C[C@@](C)(C(F)(F)F)c2c1cnc1cc(Cl)nn21` [compound 52, (R)-2-chloro-N-(5-chloro-2-methoxy-6-(2H-1,2,3-triazol-2-yl)pyridin-3-yl)-8-methyl-8-(trifluoromethyl)-7,8-dihydro-6H-pyrazolo[1,5-a]pyrrolo[2,3-e]pyrimidine-6-carboxamide], for which the IC50 is below 10 nM in test [1] and 10 to 100 nM in test [2].
